Our source for the IC50 values is patent US7803816B2, “MCH receptor antagonists” (Hoffmann-La Roche Inc., priority 2005, dated 2010).

As usually defined, the IC50 is the point on the concentration scale where inhibition reaches its midpoint.

Where a name gives a salt, the structure may show the parent alone.

The target in the first test is T1, recombinant human MCHR1-receptors (Homo sapiens, UniProt Q99705).
T1 construct: expressed in transfected cells
T1 sequence (Q99705 whole entry): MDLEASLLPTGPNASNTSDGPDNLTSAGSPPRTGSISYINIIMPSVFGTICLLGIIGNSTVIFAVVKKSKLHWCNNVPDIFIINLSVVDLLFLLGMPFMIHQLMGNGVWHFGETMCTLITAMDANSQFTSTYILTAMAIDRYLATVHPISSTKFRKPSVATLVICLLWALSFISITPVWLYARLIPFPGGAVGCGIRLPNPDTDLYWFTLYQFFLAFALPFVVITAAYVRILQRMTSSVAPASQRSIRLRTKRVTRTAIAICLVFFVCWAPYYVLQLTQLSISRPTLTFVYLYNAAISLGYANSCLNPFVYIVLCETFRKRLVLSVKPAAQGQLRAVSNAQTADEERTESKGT
Briefly: MCHR filter binding assay (competition binding). The note with it: membranes from CHO-K1 cells expressing human MCHR1; 0.2 nM [Phe13,[125I]Tyr19]-MCH; read-out: IC50 (nM), in vitro activity (binding assay). In short, it runs like this: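 Membranes from CHO-K1 cells stably expressing human MCHR1 (2.8 μg) preincubated 15 min with competitor, then 1 h at rt with 0.2 nM [Phe13,[125I]Tyr19]-MCH in HEPES/CaCl2/BSA/phenanthroline/Triton buffer. Bound radioactivity counted after rapid filtration over PVP/BSA-treated GF/B filters.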
Take `COC1CN(C[C@H]2Cc3ccc(C#N)cc3C2)CC[C@H]1n1c(C(C)(C)O)nc2cc(C)ccc21` (stereo in doubt) [Example 120, (S)-2-{(3R,4R)-4-[2-(1-Hydroxy-1-methyl-ethyl)-5-methyl-benzoimidazol-1-yl]-3-methoxy-piperidin-1-ylmethyl}-indan-5-carbonitrile]: the half-maximal inhibitory concentration (IC50) was below 20 nM.
As for `CCc1nc2cc(C)ccc2n1C1CCN(CC2Cc3ccc(NC(=O)C4CC4)cc3C2)CC1` (stereo not drawn) [Example 74, Cyclopropanecarboxylic acid {2-[4-(2-ethyl-5-methyl-benzoimidazol-1-yl)-piperidin-1-ylmethyl]-indan-5-yl}-amide], the IC50 was 20 to 200 nM.
In the case of `CO[C@@H]1CN(C[C@H]2Cc3ccc(Br)cc3C2)CC[C@H]1n1c(C)nc2cc(C)ccc21` [Example 1, 1-[(3R,4R)-1-((S)-5-Bromo-indan-2-ylmethyl)-3-methoxy-piperidin-4-yl]-2,5-dimethyl-1H-benzoimidazole], the IC50 is below 20 nM.
Consider `CO[C@H]1CN(C[C@@H]2Cc3ccc(NC(=O)C(F)F)cc3C2)CC[C@@H]1n1c(C(C)C)nc2cc(C)ccc21` [Example 67, 2,2-Difluoro-N-{(R)-2-[(3S,4S)-4-(2-isopropyl-5-methyl-benzoimidazol-1-yl)-3-methoxy-piperidin-1-ylmethyl]-indan-5-yl}-acetamide], for which the IC50 was below 20 nM.
In the case of `CCC(=O)Nc1ccc2c(c1)C[C@H](CN1CC[C@@H](n3c(C)nc4cc(F)ccc43)[C@H](OC)C1)C2` [Example 25, N-{(R)-2-[(3R,4R)-4-(5-Fluoro-2-methyl-benzoimidazol-1-yl)-3-methoxy-piperidin-1-ylmethyl]-indan-5-yl}-propionamide; dihydrochloride], the IC50 lay within 20 to 200 nM.
Same read-out and setting: then `Cc1ccc2c(c1)nc(C)n2C1CCN(CC2=Cc3cc(NC(=O)C(C)C)ccc3C2)CC1` [Example 54, N-{2-[4-(2,5-Dimethyl-benzoimidazol-1-yl)-piperidin-1-ylmethyl]-1H-inden-5-yl}-isobutyramide], with 200 to 5000 nM; and `CCc1nc2cc(C)ccc2n1C1CCN(C[C@@H]2Cc3ccc(NC(=O)C4CC4)cc3C2)CC1OC` (stereo partly drawn) [Example 72, Cyclopropanecarboxylic acid {(R)-2-[4-(2-ethyl-5-methyl-benzoimidazol-1-yl)-3-methoxy-piperidin-1-ylmethyl]-indan-5-yl}-amide], with 20 to 200 nM.
On the same count and under the same terms, with `CCC(=O)Nc1ccc2c(c1)C[C@H](CN1CCC(n3c(C(C)C)nc4cc(C)ccc43)C(OC)C1)C2` (stereo partly drawn) [Example 59, N-{(R)-2-[4-(2-Isopropyl-5-methyl-benzoimidazol-1-yl)-3-methoxy-piperidin-1-ylmethyl]-indan-5-yl}-propionamide] the figure was below 20 nM; with `CO[C@H]1CN(C[C@@H]2Cc3ccc(Br)cc3C2)CC[C@@H]1n1c(C(C)C)nc2cc(C)ccc21` [Example 90, 1-[(3S,4S)-1-((R)-5-Bromo-indan-2-ylmethyl)-3-methoxy-piperidin-4-yl]-2-isopropyl-5-methyl-1H-benzoimidazole], 200 to 5000 nM; with `Cc1ccc2c(c1)nc(C)n2[C@@H]1CCN(C[C@@H]2Cc3ccc(NC(=O)C(C)C)cc3C2)C[C@H]1CO` [Example 36, N-{(R)-2-[4-(2,5-Dimethyl-benzoimidazol-1-yl)-3-hydroxymethyl-piperidin-1-ylmethyl]-indan-5-yl}-isobutyramide], below 20 nM.
Still for that read-out and setting: with `CO[C@@H]1CN(C[C@@H]2Cc3ccc(NC(=O)C(C)C)cc3C2)CC[C@H]1n1c(C)nc2cc(C)ccc21` [Example 47, N-{(R)-2-[(3R,4R)-4-(2,5-Dimethyl-benzoimidazol-1-yl)-3-methoxy-piperidin-1-ylmethyl]-indan-5-yl}-isobutyramide] the figure was 20 to 200 nM; with `CO[C@@H]1CN(C[C@H]2Cc3ccc(Br)cc3C2)CC[C@H]1n1c(C(C)(C)O)nc2cc(F)ccc21` [Example 111, 2-{1-[(3R,4R)-1-((S)-5-Bromo-indan-2-ylmethyl)-3-methoxy-piperidin-4-yl]-5-fluoro-1H-benzoimidazol-2-yl}-propan-2-ol], 20 to 200 nM; with `Cc1ccc2c(c1)CC(CN1CCC(n3c(C(C)(C)F)nc4cc(C)ccc43)CC1)C2` (stereo not drawn) [Example 105, 2-(1-Fluoro-1-methyl-ethyl)-5-methyl-1-[1-(5-methyl-indan-2-ylmethyl)-piperidin-4-yl]-1H-benzoimidazole], 200 to 5000 nM.
Consider `Cc1cc2nc(C(C)(C)O)n(C3CCN(CC4Cc5ccc(F)cc5C4)CC3)c2cc1F` (stereo not drawn) [Example 13, 2-{6-Fluoro-1-[1-(5-fluoro-indan-2-ylmethyl)-piperidin-4-yl]-5-methyl-1H-benzoimidazol-2-yl}-propan-2-ol], for which the IC50 was below 20 nM.
Turning to `CCC(=O)Nc1ccc2c(c1)C[C@H](CN1CCC(n3c(C(C)(C)O)nc4cc(C)ccc43)CC1)C2` [Example 8, N-((R)-2-{4-[2-(1-Hydroxy-1-methyl-ethyl)-5-methyl-benzoimidazol-1-yl]-piperidin-1-ylmethyl}-indan-5-yl)-propionamide], the 50% inhibitory concentration (IC50) is 20 to 200 nM.
With `Cc1ccc2c(c1)nc(C)n2[C@@H]1CCN(C[C@@H]2Cc3ccc(NC(=O)C(C)C)cc3C2)C[C@H]1CO` (racemic) [Example 3, N-{(R)-2-[4-(2,5-Dimethyl-benzoimidazol-1-yl)-3-hydroxymethyl-piperidin-1-ylmethyl]-indan-5-yl}-isobutyramide], the IC50 was below 20 nM.
`Cc1ccc2c(c1)ncn2C1CCN(CC2Cc3ccc(NC(=O)C(C)C)cc3C2)CC1` (stereo not drawn) [Example 78, N-{2-[4-(5-Methyl-benzoimidazol-1-yl)-piperidin-1-ylmethyl]-indan-5-yl}-isobutyramide]: the IC50 lay within 20 to 200 nM.
Consider `CCCC(=O)Nc1ccc2c(c1)C[C@H](CN1CC[C@@H](n3c(C4CC4)nc4cc(C)ccc43)[C@H](OC)C1)C2` [Example 79, N-{(R)-2-[(3R,4R)-4-(2-Cyclopropyl-5-methyl-benzoimidazol-1-yl)-3-methoxy-piperidin-1-ylmethyl]-indan-5-yl}-butyramide], for which the IC50 was 20 to 200 nM.
On the same count and under the same terms, then `Cc1ccc2c(c1)nc(C(C)C)n2[C@@H]1CCN(CC2Cc3ccccc3C2)C[C@H]1O` [Example 83, (3R,4R)-1-Indan-2-ylmethyl-4-(2-isopropyl-5-methyl-benzoimidazol-1-yl)-piperidin-3-ol], with 200 to 5000 nM; and `CCCC(=O)Nc1ccc2c(c1)C[C@@H](CN1CCC(n3c(C)nc4cc(C)ccc43)CC1)C2` [Example 44, -{(S)-2-[4-(2,5-Dimethyl-benzoimidazol-1-yl)-piperidin-1-ylmethyl]-indan-5-yl}-butyramide], with 20 to 200 nM.
For `Cc1ccc2c(c1)nc(C)n2C1CCN(C[C@@H]2Cc3ccc(NC(=O)C(C)C)cc3C2)CC1` [Example 35, N-{(R)-2-[4-(2,5-Dimethyl-benzoimidazol-1-yl)-piperidin-1-ylmethyl]-indan-5-yl}-isobutyramide], the half-maximal inhibitory concentration (IC50) was below 20 nM.
Consider `CO[C@@H]1CN(CC2Cc3ccc(Br)cc3C2)CC[C@H]1n1c(C(C)(C)O)nc2cc(C)ccc21` (stereo in doubt) [Example 11, 2-{1-[(3R,4R)-1-((S)-5-Bromo-indan-2-ylmethyl)-3-methoxy-piperidin-4-yl]-5-methyl-1H-benzoimidazol-2-yl}-propan-2-ol], for which the IC50 is below 20 nM.
On the same count and under the same terms, with `CO[C@H]1CN(C[C@H]2Cc3ccc(NC(=O)C(C)C)cc3C2)CC[C@@H]1n1c(C)nc2cc(C)ccc21` [Example 49, N-{(S)-2-[(3S,4S)-4-(2,5-Dimethyl-benzoimidazol-1-yl)-3-methoxy-piperidin-1-ylmethyl]-indan-5-yl}-isobutyramide] the figure was 20 to 200 nM.
Same read-out and setting: then `CCC(=O)Nc1ccc2c(c1)C[C@H](CN1CCC(n3c(CC)nc4cc(C)ccc43)C(OC)C1)C2` (stereo partly drawn) [Example 69, N-{(R)-2-[4-(2-Ethyl-5-methyl-benzoimidazol-1-yl)-3-methoxy-piperidin-1-ylmethyl]-indan-5-yl}-propionamide], with below 20 nM.
Consider `Cc1ccc2c(c1)nc(CC(C)(C)O)n2C1CCN(CC2Cc3ccc(F)cc3C2)CC1` (stereo not drawn) [Example 23, 1-{1-[1-(5-Fluoro-indan-2-ylmethyl)-piperidin-4-yl]-5-methyl-1H-benzoimidazol-2-yl}-2-methyl-propan-2-ol; dihydrochloride], for which the IC50 lay in the range of 20 to 200 nM.
For `CO[C@@H]1CN(C[C@H]2Cc3ccc(NC(=O)C(C)C)cc3C2)CC[C@H]1n1c(C)nc2cc(C)ccc21` [Example 39, N-{(S)-2-[(3R,4R)-4-(2,5-Dimethyl-benzoimidazol-1-yl)-3-methoxy-piperidin-1-ylmethyl]-indan-5-yl}-isobutyramide; dihydrochloride], the IC50 was below 20 nM.
For `CO[C@@H]1CN(C[C@@H]2Cc3ccc(Br)cc3C2)CC[C@H]1n1c(C(C)C)nc2cc(C)ccc21` [Example 89, 1-[(3R,4R)-1-((R)-5-Bromo-indan-2-ylmethyl)-3-methoxy-piperidin-4-yl]-2-isopropyl-5-methyl-1H-benzoimidazole], the IC50 was 20 to 200 nM.
Consider `CCCC(=O)Nc1ccc2c(c1)C[C@H](CN1CC[C@H](n3c(C4CC4)nc4cc(C)ccc43)[C@@H](OC)C1)C2` [Example 62, N-{(R)-2-[(3S,4S)-4-(2-Cyclopropyl-5-methyl-benzoimidazol-1-yl)-3-methoxy-piperidin-1-ylmethyl]-indan-5-yl}-butyramide], for which the IC50 is below 20 nM.
On to `Cc1ccc2c(c1)nc(C)n2[C@@H]1CCN(C[C@H]2Cc3ccc(NC(=O)C4CC4)cc3C2)C[C@H]1O` [Example 88, Cyclopropanecarboxylic acid {(S)-2-[(3R,4R)-4-(2,5-dimethyl-benzoimidazol-1-yl)-3-hydroxy-piperidin-1-ylmethyl]-indan-5-yl}-amide], for which the IC50 lay within 20 to 200 nM.

Staying with this test, now noted: membranes from CHO-K1 cells expressing human MCHR1; 0.2 nM [Phe13,[125I]Tyr19]-MCH; read-out: IC50 (nM), selected in vitro MCH-R binding data.
Consider `CO[C@@H]1CN(C[C@H]2Cc3ccc(Br)cc3C2)CC[C@H]1n1c(C)nc2cc(C)ccc21` [Example 1, 1-[(3R,4R)-1-((S)-5-Bromo-indan-2-ylmethyl)-3-methoxy-piperidin-4-yl]-2,5-dimethyl-1H-benzoimidazole], for which the 50% inhibitory concentration (IC50) is 20 nM.
